{"source": "patent US11149068B2", "about": "“Pore-forming peptides and uses thereof” (The Administrators of the Tulane Educational Fund, priority 2018, dated 2021)", "key": {"[1]": {"assay": "Macromolecular leakage assay (release of 40 kDa TAMRA-biotin-dextran from lipid vesicles)", "assay_type": "biochemical", "settings": "for dextran release at pH 7: peptide to lipid ratios as high as 1:50", "experimental": "(§1) Large unilamellar vesicles for leakage assays were prepared as previously described (37) in 100 mM potassium chloride, with 10 mM sodium phosphate or 10 mM sodium acetate buffer. For small molecule leakage, lipids, dried from chloroform, were resuspended in buffer made of: 12.5 mM ANTS, 45 mM DPX, 5 mM HEPES, and 20 mM sodium chloride. For macromolecular leakage assays, lipids were resuspended in buffer with 1 mg/ml TAMRA-biotin-dextran (TBD). Lipid suspensions were frozen and thawed ten times and then extruded 10 times using a 0.1 um pore size Nuclepore polycarbonate filter (38). After extrusion, external ANTS and DPX were removed by gel filtration with Sephadex G100. External TBD was removed using streptavidin agarose resin.\nAs described previously (33), 40 nM Alexafluor488-labelled streptavidin (SA) was added to a solution of vesicles with entrapped TBD. This solution was added to wells of a 96-well plate containing peptide, and the plate was incubated for 60 min. Release of the 40 kDa dextran enables TBD-SA complex formation, which leads to quenching of the AF488 fluorescence (excitation 495 nm, emission at 519 nm) by TAMRA. The fraction of macromolecule leakage was determined by Equation 2:\n[formula] where I is the intensity at 60 min, Ibackground is the intensity of a vesicle control with no peptide, and Itriton is the intensity in the presence of vesicles and 0.1% v/v of the detergent Triton X-100, added to solubilize the vesicles and release the ANTS.\nStep 4: Next, to the same wells, a different preparation of vesicles was added. These vesicles have entrapped 40 kDa TBD and external Alexafluor488 streptavidin. The TBD vesicles were in sodium acetate buffer at pH 4 so that the final pH in each well was 5.0. This second addition of vesicles increased the total volume to 200 μl which decreased peptide to 2.5 μM and decreased ANTS vesicle concentration to 0.5 mM. The new TBD vesicles were present at 1.5 mM so that the total peptide to total lipid ratio was roughly about 1:800.\nStep 5: After 60 minutes, the intensity of the AF488-streptavidin was measured to quantitate macromolecule release, which is calculated with equation 2. This orthogonal and sequential screen gives two measurements that are used to identify peptides with the desired properties: i) Small molecule release at pH 7 and P:L=1:200; ii) Macromolecule release at pH 5 and P:L=1:800.\nVerification of positive peptides. Since the selected peptides are very similar to each other, a subset of them were synthesized and purified for detailed validation. Tested peptides included four representative sequences with five acidic residues, pHD24, pHD34, pHD108 and pHD118 as well as pHD15, one of the two with six acidic residues. Because there is interest in pH-triggered macromolecule release at low pH, the positive peptides were validated with the macromolecular release assay using 40 kDa dextran and 53 kD streptavidin, described above. Dextran leakage was measured as functions of peptide concentration and pH using vesicles made from phosphatidylcholine lipids."}, "[2]": {"assay": "Small molecule leakage assay (ANTS/DPX release from lipid vesicles)", "assay_type": "biochemical", "settings": "screen conditions", "experimental": "as §1, with “External TBD was removed using streptavidin agarose resin.” left out\nLipid vesicles with entrapped ANTS and DPX were diluted into wells of a 96 well plate containing peptide. After 30 minutes, vesicle permeabilization was measured by an increase in ANTS fluorescence, with excitation at 350 nm and emission at 519 nm. Fractional leakage was quantified using Equation 1: […]\nStep 2: Aliquots of peptides in water from the plate in Step 1 were added to wells of a second plate, followed by addition of 1 mM lipid vesicles in 100 μl of sodium phosphate buffer at pH 7. […] Leakage, if it occurs, causes an increase in fluorescence of ANTS. […]\nStep 3: After 30 minutes of incubation, ANTS fluorescence was measured for each well to quantitate small molecule release using equation 1."}, "[3]": {"assay": "Circular dichroism spectroscopy of peptide secondary structure in the presence of vesicles versus pH", "assay_type": "physicochemical", "settings": "P:L=1:200", "experimental": "FIGS. 5A-5B are graphs depicting example binding and folding data. FIG. 5A: Circular dichroism spectra of pHD108 (SEQ ID NO: 9) versus pH at P:L=1:200 in 1 mM POPC vesicles. Separate samples are made at each pH and equilibrated for 30 minutes prior to the measurement. The spectra show a structural transition from random coil at pH 7 to classical α-helix at pH<5.75. FIG. 5B: Tryptophan fluorescence spectra of pHD108 at P:L=1:200 in 1 mM POPC vesicles. Separate samples are made at each pH and equilibrated for 30 minutes prior to the measurement. The spectra show a transition from a more polar, water-exposed environment to a less polar or buried environment consistent with peptide partitioning into bilayers.\nPeptide secondary structure in the presence of vesicles as a function of pH was studied by circular dichroism spectroscopy. Example CD spectra for pHD108 at P:L=1:200 are seen in FIG. 5A and show a pH-triggered transition from random coil to α-helical structure with an effective pKa around 5.5. Circular dichroism was measured in a JASCO 810 spectropolarimeter. Samples in buffers of various pH were prepared by mixing peptide and vesicle solutions, each prepared at the needed pH. Spectra were collected on samples of 2 mM vesicles and 10 μM peptide in 1 mm path rectangular quartz cuvette after 1 hour of equilibration."}, "[4]": {"tested_on": "Chinese Hamster Ovary cells", "assay": "Cell viability, Alamar Blue assay", "assay_type": "cell-based", "settings": "ten minutes with peptide at pH 5 or pH 7, overnight recovery; except at the highest concentration", "experimental": "FIGS. 7A-7B are graphs showing the effect of peptides on the viability Chinese Hamster Ovary cells incubated with either the lytic peptide MelP5, or the pH-triggerred membrane permeabilizing peptide pHD108. Cells were grown to 50% confluency, and then treated for ten minutes with peptide in cell culture media at pH 5 (FIG. 7A) or at pH 7 (FIG. 7B). Full media with growth factors was added and the cells recovered overnight. Viability was assessed with the Alamar Blue assay. The values were normalized to cells treated with media only (negative control) and media only, no cells (positive control)."}}, "note": "Ends that are not written are not given here."}
{"substance": "GIGAVLKVLATGLPALISWIKAAQQL [MelP5, synthetically evolved gain-of-function variant of melittin, non pH-sensitive macromolecular pore-former]", "values": [{"measurement": "macromolecule release", "setting": "[1]; screen conditions, 1 nmol, all pH values", "result": "partial"}, {"measurement": "release of macromolecule probe (TBD)", "setting": "[1]; screen conditions, 4 nmol (P:L=1:100)", "result": "essentially complete release"}, {"measurement": "release of small molecule probe (ANTS)", "setting": "[2]; 4 nmol", "result": "essentially complete release"}]}
{"substance": "GIGDVLHELAADLPELQEWIHAAQQL [pHD24]", "values": [{"measurement": "dextran release at pH 7", "setting": "[1]", "result": "no activity"}]}
{"substance": "GIGEVLHELADDLPDLQEWIHAAQQL [pHD15]", "values": [{"measurement": "apparent pKa of macromolecule leakage (curve midpoints)", "setting": "[1]; P:L=1:200, 1 mM POPC vesicles, 40 kDa dextran", "result": "lowest apparent pKa value"}, {"measurement": "dextran release at pH 7", "setting": "[1]", "result": "no activity"}]}
{"substance": "GIGEVLHELAEGLPELQEWIHAAQQL [pHD108]", "values": [{"measurement": "effective pKa of transition from random coil to α-helical structure", "setting": "[3]", "result": "around 5.5"}, {"measurement": "toxicity to mammalian cells", "setting": "[4]", "result": "did not exhibit toxicity"}]}
{"substance": "Triton X-100", "values": [{"measurement": "release of macromolecule probe (TBD)", "setting": "[1]; screen conditions, 0.1% v/v", "result": "essentially complete release"}, {"measurement": "release of small molecule probe (ANTS)", "setting": "[2]; 0.1% v/v", "result": "essentially complete release"}]}
